Laboratory results published in patent publication EP0351921A2, “Modified beta adrenergic receptor” (MERCK & CO. INC., priority 1988, dated 1990).

Key:
[1] = target: wild-type βAR ([Asp113]βAR) (Mesocricetus auratus, UniProt P04274); assay: Adenylyl cyclase stimulation in membranes of cell lines expressing the receptor; conditions: for %NaF: (Asp^113)βAR, percentage of maximal stimulation by 10 mM NaF, Table 3; for maximal adenylyl cyclase stimulation (% of NaF): [Asp113]βAR, maximally effective concentration of the compound, relative to 10 mM NaF, Table 1
[Glu¹¹³]βAR = [Glu¹¹³]βAR (Mesocricetus auratus, UniProt P04274, D113E); assay: as above; conditions: for %NaF: (Glu^113)βAR, percentage of maximal stimulation by 10 mM NaF, Table 3
[Asn113]βAR = target: T1, [Asn113]βAR (Mesocricetus auratus, UniProt P04274, D113N); assay: as above; format: biochemical, hamster; conditions: for maximal adenylyl cyclase stimulation (% of NaF): [Asn113]βAR, maximally effective concentration of the compound, relative to 10 mM NaF, Table 1
T1 construct: pSVBAC contains the full length hamster β₂AR cDNA cloned into the EcoRI site of pSVL; expressed in transfected cells; host or cells: mouse L cells (clonal lines; membranes)

[Arg¹¹³]βAR = [Arg¹¹³]βAR (Mesocricetus auratus, UniProt P04274, D113R); conditions: ligand concentrations as high as 1 mM
[Cys¹¹³]βAR = [Cys¹¹³]βAR (Mesocricetus auratus, UniProt P04274, D113C); conditions: ligand concentrations as high as 1 mM
[His¹¹³]βAR = [His¹¹³]βAR (Mesocricetus auratus, UniProt P04274, D113H); conditions: ligand concentrations as high as 1 mM
[LYS¹¹³]βAR = [LYS¹¹³]βAR (Mesocricetus auratus, UniProt P04274, D113K); conditions: ligand concentrations as high as 1 mM
[2] = maximum concentration 10⁻⁵ M (+)
[3] = maximum concentration 10⁻⁴ M (*)

Sequence of [Glu¹¹³]βAR (P04274 whole entry D113E): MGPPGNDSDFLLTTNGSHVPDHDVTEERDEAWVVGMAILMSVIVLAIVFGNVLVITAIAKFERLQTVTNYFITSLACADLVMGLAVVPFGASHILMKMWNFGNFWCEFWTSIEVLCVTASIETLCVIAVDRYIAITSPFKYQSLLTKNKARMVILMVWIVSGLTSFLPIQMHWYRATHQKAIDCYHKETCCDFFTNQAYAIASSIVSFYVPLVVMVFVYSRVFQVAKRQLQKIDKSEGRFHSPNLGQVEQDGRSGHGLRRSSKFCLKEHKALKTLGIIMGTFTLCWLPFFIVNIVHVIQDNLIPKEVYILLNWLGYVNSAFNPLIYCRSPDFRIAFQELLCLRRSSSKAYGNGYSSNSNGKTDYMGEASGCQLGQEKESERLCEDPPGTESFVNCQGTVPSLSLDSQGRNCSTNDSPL
T1 sequence (P04274 whole entry D113N): as the sequence (P04274 whole entry D113E) above, with E113N counted along it
Sequence of wild-type βAR ([Asp113]βAR) (P04274 whole entry): as the sequence (P04274 whole entry D113E) above, with E113D counted along it
Sequence of [LYS¹¹³]βAR (P04274 whole entry D113K): as the sequence (P04274 whole entry D113E) above, with E113K counted along it
Sequence of [Cys¹¹³]βAR (P04274 whole entry D113C): as the sequence (P04274 whole entry D113E) above, with E113C counted along it
Sequence of [Arg¹¹³]βAR (P04274 whole entry D113R): as the sequence (P04274 whole entry D113E) above, with E113R counted along it
Sequence of [His¹¹³]βAR (P04274 whole entry D113H): as the sequence (P04274 whole entry D113E) above, with E113H counted along it

Compound	%NaF ([1]; maximum concentration 10⁻³ M) [%]	%NaF ([Glu¹¹³]βAR; maximum concentration 10⁻³ M) [%]	%NaF [1, 2]	%NaF ([Glu¹¹³]βAR; [3])	further results
CC(C)NCC(O)COc1ccc(-c2ncc[nH]2)cc1 (stereo not drawn) [Compound 5, 3-(4-(1-imidazol-2-yl)phenoxy)-1-isopropylamino-2-propanol]	0	0			
N=C(N)NCC(O)c1ccc(O)c(O)c1 [L-612,158, 1-[2-(3,4-dihydroxyphenyl)-2-hydroxyethyl]guanidine]					maximal adenylyl cyclase stimulation (% of NaF) ([Asn113]βAR): 50%; maximal adenylyl cyclase stimulation (% of NaF) [1]: 11%; decrease in affinity of the interaction with the wild type βAR ([1]; versus isoproterenol): 1000 fold
CC(C)NCC(O)COc1ccc(COCCOC(C)C)cc1 (stereo not drawn) [Compound 8, bisopropol]			0^+ %	0^* %	
CC(C)NCC(O)c1ccc(O)c(O)c1 (stereo not drawn) [isoproterenol]					maximal adenylyl cyclase stimulation (% of NaF) ([Asn113]βAR): 100%; decrease in affinity for the receptor ([Asn113]βAR; substitution of Asn for Asp¹¹³, versus wild-type receptor): 5000 fold; stimulation of adenylyl cyclase ([Arg¹¹³]βAR): no stimulation; stimulation of adenylyl cyclase ([Cys¹¹³]βAR): no stimulation; stimulation of adenylyl cyclase ([His¹¹³]βAR): no stimulation; stimulation of adenylyl cyclase ([LYS¹¹³]βAR): no stimulation; maximal adenylyl cyclase stimulation (% of NaF) [1]: 100%; decrease in affinity for the receptor ([Glu¹¹³]βAR; substitution of Glu for Asp¹¹³, versus wild-type receptor): 300 fold
CC(C)NCC(O)COc1cccc2[nH]ccc12 (stereo not drawn) [Compound 2, pindolol]	0	35			

More lines, main results first:

%NaF ([1]; maximum concentration 10⁻³ M) [%]	%NaF ([Glu¹¹³]βAR; maximum concentration 10⁻³ M) [%]	%NaF [1, 2]	%NaF ([Glu¹¹³]βAR; [3])	Compound	further results
		0^+ %	0^* %	CC(C)NCC(O)COc1ccc(CC(N)=O)cc1 (stereo not drawn) [Compound 6, atenolol]	
		0^+ %	2^* %	COCCc1ccc(OCC(O)CNC(C)C)cc1 (stereo not drawn) [Compound 7, metoprolol]	
0	0			CC(C)NCC(O)COc1ccccc1N1CCOCC1 (stereo not drawn) [Compound 9, 3-o-morpholinophenoxy-1-isopropylamino-2-propanol]	
0	0			CC(C)NCC(O)COc1ccccc1 (stereo not drawn) [Compound 4, 3-phenoxy-1-isopropylamino-2-propanol]	
0	6			Cc1ccc(OCC(O)CNC(C)C)c2c1CCC2 (stereo not drawn) [Compound 3, 3-(7-methylindan-4-yloxy) -1-isopropylamino-2-propanol]	
